The record followed here is patent publication US4333873A, “Pharmacologically active peptides” (Eli Lilly and Company, priority 1981, dated 1982).

Counter-ions that a name gives are not always drawn.

The test system of this test is mouse. Kind of test: mouse hot plate test (analgesic activity). The format is in vivo. The note with it: hot plate 52° C., 15 minutes after administration, latency to jump. The procedure: In this test, a mouse is placed inside an upright acrylic cylinder comprising, as its base, a hot plate surface which is maintained at 52° C. The mouse is given, orally or by subcutaneous injection, a predetermined amount of test compound dissolved or suspended in a suitable carrier, and, 15 minutes after administration of the test compound, the mouse is placed on the hot plate surface. The latency in seconds until the mouse jumps from the hot plate surface is measure. […] This must occur in a dose range which produces no motor incoordination or incapacitation. The following Table records the ED50 results obtained from this test.
(Hot-plate and tail-flick tests time the reaction to a heat stimulus.)

`C=CCN(C(=O)CNC(=O)[C@@H](C)NC(=O)[C@@H](N)Cc1ccc(O)cc1)[C@@H](Cc1ccccc1)C(N)=O` [Example 1, L-Tyrosyl-D-alanyl-glycyl-L-(N^α -allyl)phenylalanine Amide, Acetate Salt]: the “Analgesic Activity, Hot Plate Test ED50, mg./kg. subcutaneous” value turned out to be 0.01 mg/kg.

For the molecule `C[C@@H](NC(=O)[C@@H](N)Cc1ccc(O)cc1)C(=O)NCC(=O)N(CC1CC1)[C@@H](Cc1ccccc1)C(N)=O` [Example 2, L-Tyrosyl-D-alanyl-glycyl-L-(N^α -cyclopropylmethyl)phenylalanine Amide, Acetate Salt], the “Analgesic Activity, Hot Plate Test ED50, mg./kg. subcutaneous” value stood at 0.012 mg/kg.
